The values below come from the CheMixHub viscosity set.

Molecules are shown by their SMILES. Several values for one entry are separate records, joined by “and”; a condition that tells them apart may be missing. Equal entries are not always repeated. ± gives the uncertainty stated by the source.

For orientation: viscosity means the resistance of a fluid to flow. Turning to `CC(=O)OCc1ccccc1`, the viscosity (323.15 K, 101.33 kPa) turned out to be 1.23 ± 0.18 mPa·s.

Consider `CCCCCCCCCCCCCC[P+](CCCC)(CCCC)CCCC.CCCCCCCCCCCCc1ccccc1S(=O)(=O)[O-]`, for which the viscosity (313.15 K, 101 kPa) is recorded as 1480 ± 110 mPa·s and the viscosity (323.15 K, 101 kPa) was found to be 750 ± 46 mPa·s.

`CCCC[N+]1(C)CCCCC1.O=S(=O)([N-]S(=O)(=O)C(F)(F)F)C(F)(F)F` gave a viscosity (298.15 K, 101 kPa) of 178.5 ± 8.6 mPa·s.

Turning to `CCOCCOCC`, the viscosity is, setting by setting: (298.15 K, 101.33 kPa) 0.602 ± 0.017 mPa·s; (308.15 K, 101.33 kPa) 0.522 ± 0.015 mPa·s.

On to `CCn1cc[n+](C)c1.C[C@H](N)C(=O)[O-]`, for which the viscosity is on record as 137.5 ± 6.2 mPa·s (308.15 K, 101 kPa) and 103.5 ± 4.1 mPa·s (313.15 K, 101 kPa).

On to `ClC(Cl)Cl`, for which the viscosity by setting is: (293.15 K, 101.33 kPa) 0.5659 ± 0.016 mPa·s; (293.16 K, 101 kPa) 0.563 ± 0.015 mPa·s; (298 K, 101 kPa) 0.5427 ± 0.0079 mPa·s; (298 K, 101.33 kPa) 0.538 ± 0.007 mPa·s; (298.16 K, 101 kPa) 0.542 ± 0.014 mPa·s; (303 K, 101.3 kPa) 0.5254 ± 0.019 mPa·s and 0.5249 ± 0.0097 mPa·s. Also, the viscosity reads like this: (303 K, 101.33 kPa) 0.517 ± 0.007 mPa·s; (303.15 K, 101.3 kPa) 0.5129 ± 0.0036 mPa·s and 0.5129 ± 0.051 mPa·s and 0.5033 ± 0.0094 mPa·s; (303.15 K, 101.33 kPa) 0.514 ± 0.1 mPa·s and 0.471 ± 0.014 mPa·s; (303.16 K, 101 kPa) 0.514 ± 0.014 mPa·s; (303.75 K, 101 kPa) 0.5393 ± 0.014 mPa·s; (308 K, 101 kPa) 0.4881 ± 0.0073 mPa·s. Besides, the viscosity is 0.482 ± 0.005 mPa·s (308.15 K, 101 kPa); 0.452 ± 0.013 mPa·s and 0.5065 ± 0.0051 mPa·s and 0.485 ± 0.004 mPa·s (308.15 K, 101.33 kPa); 0.4893 ± 0.018 mPa·s and 0.4893 ± 0.0092 mPa·s (311 K, 101.3 kPa); 0.479 ± 0.006 mPa·s (313 K, 101.33 kPa); 0.472 ± 0.01 mPa·s and 0.4891 ± 0.013 mPa·s and 0.557 ± 0.015 mPa·s (313.15 K, 101 kPa); 0.4487 ± 0.0068 mPa·s (318 K, 101 kPa). Moreover, the viscosity was 0.442 ± 0.004 mPa·s (318.15 K, 101.33 kPa); 0.4566 ± 0.017 mPa·s and 0.4571 ± 0.0087 mPa·s (319 K, 101.3 kPa); 0.447 ± 0.006 mPa·s (323 K, 101.33 kPa); 0.491 ± 0.013 mPa·s (323.15 K, 101 kPa); 0.4473 ± 0.0045 mPa·s (323.15 K, 101.33 kPa).

`FC(F)Cl`: the viscosity reads like this: (293.25 K, 101 kPa) 0.1758 ± 0.0048 mPa·s; (313.35 K, 101 kPa) 0.1381 ± 0.0038 mPa·s.

Take `O=C(O)CCl`: for the setting “323.15 K, 101 kPa”, the viscosity was 3.091 ± 0.03 mPa·s.

For `O=CC(Cl)(Cl)Cl`, the viscosity was 1.055 ± 0.044 mPa·s and 1.055 ± 0.01 mPa·s (2×) (298.15 K, 101 kPa); 1.055 ± 0.014 mPa·s (298.15 K, 101.33 kPa); 0.9017 ± 0.0089 mPa·s (308.15 K, 101 kPa); 1.009 ± 0.027 mPa·s and 0.8411 ± 0.022 mPa·s (313.15 K, 101 kPa); 0.934 ± 0.025 mPa·s (318.15 K, 101 kPa); 0.764 ± 0.032 mPa·s and 0.7641 ± 0.0076 mPa·s and 0.869 ± 0.023 mPa·s (323.15 K, 101 kPa). The compound also showed a viscosity (323.15 K, 101.33 kPa) of 0.7641 ± 0.01 mPa·s.

`OCC(F)(F)C(F)(F)F`: the viscosity (298.15 K, 100 kPa) worked out at 3.367 ± 0.069 mPa·s and the viscosity (323.15 K, 100 kPa) was found to be 1.518 ± 0.032 mPa·s.
